Reference: patent US11608334B2, “Pyrrolo-aromatic heterocyclic compound, preparation method therefor, and medical use thereof” (The National Institutes of Pharmaceutical R&D Co., Ltd., priority 2017, dated 2023)

Experiments:
BTK = biological target: T1, BTK (Homo sapiens, UniProt Q06187); experiment: Determination of BTK inhibitory activity (ADP-Glo kinase assay); format: biochemical; settings: BTK (Promega), Poly E4Y substrate, 25° C., 60 minutes
T1 construct: purchased Promega
Procedure: To a 384 reaction plate (6008280, PerkinElmer), 2 μL/well of BTK solution (purchased from Promega) was added. The test compound (10 mM stock solution) was diluted 100-fold to 100 μM with 100% DMSO. In a 384 dilution plate (3657, coming), a 1:3 dilution was made, and the gradient concentrations of the test compounds were 100, 33.3, 11.1, 3.7, 1.24, 0.41, 0.14, 0.046, 0.015, 0.0051, 0 μM. 2 μL of the test compound was transferred to a 384-dilution plate containing 38 μL of 1× Kinase Reaction Buffer, homogenized and centrifuged at 1000 rpm. 1 μL of the test compound was transferred to the 384 reaction plate, centrifuged at 1000 rpm, and incubated at 25° C. for 15 minutes. 2 μL of substrate mixture (ATP: 10 mM, 4 μL; Poly E4Y 1:1 mg/mL, 20 μL; Kinase Reaction Buffer: 776 μL) was transferred to a 384 reaction plate, centrifuged at 1000 rpm and incubated at 25° C. for 60 minutes. The final concentration of the test compound in the reaction system was the gradients of 1000, 333.3, 111.1, 37.03, 12.35, 4.14, 1.37, 0.46, 0.15, 0.051, 0 nM. The final concentration of DMSO was 1%. 5 μL of ADP-Glo solution (purchased from Promega) was transferred to a 384 reaction plate, centrifuged at 1000 rpm and incubated at 25° C. for 40 minutes. 10 μL of Detection solution was transferred to a 384 reaction plate, centrifuged at 1000 rpm and incubated for 40 minutes at 25° C. The RLU (Relative luminescence unit) signal was read using an Envision multi-function reader (Perkin Elmer), and the signal intensity was used to characterize the activity of BTK kinase. The IC50 values was calculated and analyzed by Microsoft Excel software.

[1] = system: Type 2 Collagen Induced DBA/1J Mouse Arthritis Model (CIA); experiment: Type 2 collagen induced DBA/1J mouse arthritis model (CIA), arthritis index score; format: in vivo; settings: CIA DBA/1 mice, 30 mg/kg orally once a day, n = 9
Procedure: The CIA model is an animal model widely used to study the drug activity on human rheumatoid arthritis.
Animals: DBA/1 mice, sex: male, number: 30, weight: 14-16 g, age of weeks: 6-7 weeks old, purchased from Beijing Weitong Lihua Experimental Animal Technology Co., Ltd., SPF, animal production license number: SCXK (Beijing) 2012-0001, the issue unit: Beijing Science and Technology Commission.
Group: model control group, administration (30 mg/Kg) group (compound of example 33).
An appropriate amount of Bovine Type II Collage (purchased from Chondrex. Inc.) was dissolved in 0.05 M acetic acid (4 mg collagen/mL) and stored in a refrigerator at 4° C. overnight. Then it was fully emulsified with an equal amount of complete Freund's adjuvant in an ice bath environment. Each DBA/1J mouse was injected subcutaneously at 1.5 cm from the base of the tail with 0.1 mL emulsion (200 μg of collagen). Clinical symptom observation and arthritis score were started 4 weeks after modeling. The scores of all symptomatic animals were ranked and randomly grouped into two groups, which were model control group (the same amount of 0.5% CMC was administered orally) and administration group (30 mg/kg of the compound of Example 33 was administered orally) respectively. The administration was continued for 21 days withonce a day. Arthritis scores and body weight changes were measured every 3 days after administration.
Arthritis Index Score: The arthritis index score is based on Wood's arthritis score as follows: • 0 points: normal • 1 points: redness involving 1 knuckle • 2 points: redness involving more than 2 knuckles or mild redness involving entire foot • 3 points: the feet are red and swollen • 4 points: the feet are severely red and swollen, and the joints are stiff and inelastic.
The damage of each of the 4 paws was graded as 0-4 points and the total score of the limbs was calculated. The scores at different times were compared (arthritis index).

T1 sequence (Q06187 whole entry): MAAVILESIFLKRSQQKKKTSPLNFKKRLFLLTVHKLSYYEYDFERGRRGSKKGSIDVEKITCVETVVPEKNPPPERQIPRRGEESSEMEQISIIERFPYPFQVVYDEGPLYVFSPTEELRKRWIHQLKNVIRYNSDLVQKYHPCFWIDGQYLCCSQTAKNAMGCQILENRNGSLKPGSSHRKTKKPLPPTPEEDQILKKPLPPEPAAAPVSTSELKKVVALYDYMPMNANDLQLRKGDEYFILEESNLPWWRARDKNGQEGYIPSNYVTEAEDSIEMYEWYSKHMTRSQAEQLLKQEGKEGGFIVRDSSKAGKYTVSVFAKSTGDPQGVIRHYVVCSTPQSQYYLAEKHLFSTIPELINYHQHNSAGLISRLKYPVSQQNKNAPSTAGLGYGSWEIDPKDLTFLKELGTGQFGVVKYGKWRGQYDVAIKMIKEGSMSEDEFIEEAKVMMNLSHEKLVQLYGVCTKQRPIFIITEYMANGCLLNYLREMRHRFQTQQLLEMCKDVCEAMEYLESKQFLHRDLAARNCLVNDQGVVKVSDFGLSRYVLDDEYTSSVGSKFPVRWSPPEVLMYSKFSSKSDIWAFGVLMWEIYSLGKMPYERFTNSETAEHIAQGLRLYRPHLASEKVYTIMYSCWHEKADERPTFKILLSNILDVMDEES

| SMILES | IC50 (BTK) [nM] | other results |
| --- | --- | --- |
| C=CC(=O)Nc1cccc(Oc2c(Cl)cnc3[nH]c(-c4ccc(N5CCN(C)CC5)cc4)cc23)c1 [Example 1, N-(3-((5-chloro-2-(4-(4-methylpiperazin-1yl)phenyl)-1H-pyrrolo[2,3-b]pyridin-4-yl)oxy)phenyl)acrylamide] | < 100 |  |
| C=CC(=O)Nc1cccc(Oc2c(F)cnc3[nH]c(-c4ccc(N5CCN(C)CC5)cc4)cc23)c1 [Example 2, N-(3-((5-fluoro-2-(4-(4-methylpiperazin-1yl)phenyl)-1H-pyrrolo[2,3-b]pyridin-4-yl)oxy)phenyl) acrylamide] | < 100 |  |
| C=CC(=O)Nc1cccc(Nc2ncnc3[nH]c(-c4ccc(N5CCN(C)CC5)cc4)cc23)c1 [Example 5, N-(3-((6-(4-(4-methylpiperazin-1-yl)phenyl)-7H-pyrrolo[2,3-d]pyrimidin-4-yl)amino)phenyl)acrylamide] | < 100 |  |
| CC#CC(=O)Nc1cccc(Oc2ncnc3[nH]c(-c4ccc(N5CCN(C)CC5)cc4)cc23)c1 [Example 6, N-(3-((6-(4-(4-methylpiperazin-1-yl)phenyl)-7H-pyrrolo[2,3-d]pyrimidin-4-yl)oxy)phenyl) but-2-ynylamide] | < 100 |  |
| C=CC(=O)Nc1cccc(Oc2ncnc3[nH]c(-c4ccc(N5CCN(C)CC5)cc4)cc23)c1 [Example 12, N-(3-((6-(4-(4-methylpiperazin-1-yl)phenyl)-7H-pyrrolo[2,3-d]pyrimidin-4-yl)oxy)phenyl) acrylamide] | < 100 |  |
| C=CC(=O)N(C)c1cccc(Oc2ncnc3[nH]c(-c4ccc(N5CCOCC5)cc4)cc23)c1 [Example 16, N-methyl-N-(3-((6-(4-morpholinylphenyl)-7H-pyrrolo[2,3-d]pyrimidin-4-yl)oxy)phenyl)acrylamide] | < 100 |  |
| C=CC(=O)Nc1cc(Oc2ncnc3[nH]c(-c4ccc(N5CCN(C)CC5)cc4)cc23)ccc1F [Example 18, N-(2-fluoro-5-((6-(4-(4-methylpiperazin-1-yl)phenyl)-7H-pyrrolo[2,3-d]pyrimidin-4-yl)oxy)phenyl)acrylamide] | < 100 |  |
| C=CC(=O)Nc1cc(Oc2ncnc3[nH]c(-c4ccc(N5CCOCC5)cc4)cc23)ccc1F [Example 19, N-(2-Fluoro-5-((6-(4-morpholinylphenyl)-7H-pyrrolo[2,3-d]pyrimidin-4-yl)oxy)phenyl)acrylamide] | < 100 |  |
| C=CC(=O)Nc1cccc(Oc2ncnc3[nH]c(-c4ccc(N5CCN(C)CC5)c(F)c4)cc23)c1 [Example 25, N-(3-((6-(3-fluoro-4-(4-methylpiperazin-1-yl)phenyl)-7H-pyrrolo[2,3-d]pyrimidin-4-yl)oxy)phenyl)acrylamide] | < 100 |  |
| C=CC(=O)Nc1cccc(Nc2ncnc3[nH]c(-c4ccc(N5CCOCC5)cc4)cc23)c1 [Example 32, N-(3-((6-(4-morpholinylphenyl)-7H-pyrrolo[2,3-d]pyrimidin-4-yl)amino)phenyl) acrylamide] | < 100 |  |
| C=CC(=O)Nc1cccc(Oc2ncnc3[nH]c(-c4ccc(N5CCOCC5)cc4)cc23)c1 [Example 33, N-(3-((6-(4-morpholinylphenyl)-7H-pyrrolo[2,3-d]pyrimidin-4-yl)oxy)phenyl)acrylamide] |  | Arthritis score ([1]; 3 day after administration): 5.00 ± 3.16; Arthritis score ([1]; 7 day after administration): 5.78 ± 2.91; Arthritis score ([1]; 10 day after administration): 6.13 ± 3.23; Arthritis score ([1]; 14 day after administration, *P < 0.05 vs model control): 5.13 ± 3.60*; Arthritis score ([1]; 17 day after administration, *P < 0.05 vs model control): 4.63 ± 3.11*; Arthritis score ([1]; 21 day after administration, **P < 0.01 vs model control): 3.63 ± 1.92**; Arthritis score ([1]; Before administration): 4.11 ± 3.26 |
| C=CC(=O)Nc1cccc(Oc2ncnc3[nH]c(-c4ccc(CN5CCS(=O)(=O)CC5)cc4)cc23)c1 [Example 44, N-(3-((6-(4-((1,1-dioxothiomorpholinyl)methyl)phenyl)-7H-pyrrolo[2,3-d]pyrimidin-4-yl)oxy)phenyl)acrylamide] | < 100 |  |
| C=CC(=O)Nc1cccc(Oc2ncnc3[nH]c(-c4ccc(CN5CCOCC5)cc4)cc23)c1 [Example 46, N-(3-((6-(4-(morpholinomethyl)phenyl)-7H-pyrrolo[2,3-d]pyrimidin-4-yl)oxy)phenyl)acrylamide] | < 100 |  |
| C=CC(=O)Nc1cccc(Oc2ncnc3[nH]c(-c4ccc(CN5CCC(F)(F)CC5)cc4)cc23)c1 [Example 47, N-(3-((6-(4-((4,4-Difluoropiperidin-1-yl)methyl)phenyl)-7H-pyrrolo[2,3-d]pyrimidin-4-yl)oxy)phenyl)acrylamide] | < 100 |  |
| C=CC(=O)Nc1cccc(Oc2ncnc3[nH]c(-c4ccc(NC5CCN(C)CC5)cc4)cc23)c1 [Example 53, N-(3-((6-(4-((1-methylpiperidin-4-yl)amino)phenyl)-7H-pyrrolo[2,3-d]pyrimidin-4-yl)oxy)phenyl)acrylamide] | < 100 |  |
| CC#CC(=O)Nc1cccc(Oc2ncnc3[nH]c(-c4ccc(CN5CCC(F)(F)CC5)cc4)cc23)c1 [Example 63, N-(3-((6-(4-((4,4-difluoropiperidin-1-yl)methyl)phenyl)-7H-pyrrolo[2,3-d]pyrimidin-4-yl)oxy)phenyl)but-2-ynylamide] | < 100 |  |
| CC#CC(=O)Nc1cccc(Oc2ncnc3[nH]c(-c4ccc(CN5CCCCC5)cc4)cc23)c1 [Example 64] | < 100 |  |
